Source: PMC9100673, “Acridine Based N-Acylhydrazone Derivatives as Potential Anticancer Agents: Synthesis, Characterization and ctDNA/HSA Spectroscopic Binding Properties” (Molecules, 2022)

Legend:
hTopo I = target: T1, hTopo I (Homo sapiens, UniProt P11387); assay: Topo I DNA relaxation assay; assay type: biochemical; conditions: 25, 50 and 100 μM; pBR322
T1 sequence (P11387 1-765): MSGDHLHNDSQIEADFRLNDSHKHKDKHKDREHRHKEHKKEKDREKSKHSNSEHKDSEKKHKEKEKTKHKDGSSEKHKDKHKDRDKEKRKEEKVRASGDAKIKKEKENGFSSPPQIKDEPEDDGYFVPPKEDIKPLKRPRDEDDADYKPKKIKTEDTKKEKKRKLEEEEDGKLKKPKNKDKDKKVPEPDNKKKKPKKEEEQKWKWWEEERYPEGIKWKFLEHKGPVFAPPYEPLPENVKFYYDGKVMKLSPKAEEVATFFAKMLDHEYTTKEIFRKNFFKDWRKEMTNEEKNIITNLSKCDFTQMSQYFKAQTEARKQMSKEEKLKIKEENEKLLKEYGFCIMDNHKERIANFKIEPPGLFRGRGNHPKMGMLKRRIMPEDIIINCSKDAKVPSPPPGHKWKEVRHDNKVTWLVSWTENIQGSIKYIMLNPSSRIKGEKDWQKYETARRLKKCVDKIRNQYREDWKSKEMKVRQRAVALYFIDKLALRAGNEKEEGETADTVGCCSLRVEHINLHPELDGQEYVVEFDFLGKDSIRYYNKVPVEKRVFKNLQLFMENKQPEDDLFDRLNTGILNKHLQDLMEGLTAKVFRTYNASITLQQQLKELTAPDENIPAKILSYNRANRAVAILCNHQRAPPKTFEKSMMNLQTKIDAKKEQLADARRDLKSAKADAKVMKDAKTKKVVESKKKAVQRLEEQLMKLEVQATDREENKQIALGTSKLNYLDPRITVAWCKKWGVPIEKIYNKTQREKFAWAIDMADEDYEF
Source text: Topo I enzymes convert the supercoiled (SC) form DNA to relaxed (R) form and nicked-open-circular (NOC) DNA. The NOC form is circular dsDNA with one nicked strength; Topo I nicked only one strength. SC form DNA migrate the fastest in gel, NOC migrates the slowest, and the migration speed of R DNA is in the middle of these two forms. In an electrophoretogram with active Topo I enzymes, SC DNA is not observed, but R and NOC DNA forms can be seen. In the case of Topo I inhibition, bends for R and NOC DNA forms are not observed. The results electrophoretogram effect of derivatives 3a–3d on activity topoisomerase I show Figure 12A.
Figure 12 The result of Topo I/IIα activity tests in the presence of derivatives 3a–3d. (A) Electrophoretogram for inhibition relaxation activity of hTopo I (2.5 U) by derivatives 3a–3d in concentrations of 25, 50 and 100 μM (lane 5–16), substrate-free SC pBR322 (0.5 μg) (lane 4), camptothecin (CPT, lane 2) and plasmid+hTopo I control (lane 3). (NOC—nicked-opened DNA form; R—relaxed DNA form; SC—supercoiled DNA form). (B) Electrophoretogram for inhibition decatenation activity of hTopo IIα (0.5 U) by derivatives 3a–3d in concentrations of 25, 50 and 100 μM (lane 5–16), substrate-free catenated kinetoplast DNA (cat kDNA) (0.5 μg) (lane 4), m-Amsacrine (AMSA, lane 2) and plasmid +hTopo IIα control (lane 3). (decat DNA—decatenated DNA; NC—nicked circular DNA form; L—linear DNA form).

CCD-18Co cells = assay: MTT assay, metabolic activity of CCD-18Co fibroblasts; assay type: cell-based, human; conditions: 48 h; for IC50: Homo sapiens, CCD-18Co
Method: (§1) The effect of acridine-benzohydrazides (3a–3d) on the metabolic activity of the lung adenocarcinoma cell line (A549) and the normal colon fibroblast cell line (CCD-18Co) was evaluated using a 3-(4,5-dimethylthiazol-2-yl)-2,5-diphenyltertrazolium bromide (MTT) cell assay. This assay is based on the metabolization of yellow MTT to purple formazan crystal by mitochondrial dehydrogenases, and therefore only metabolic active cells are capable of that reaction. The CCD-18Co cell line was used as a control to check for derivatives selectivity. The doxorubicin belongs to a group of anthracyclines, which represent the chemotherapeutic regiments for the treatment of NSCLC (non-small cell lung carcinoma) even today, and acts as antineoplastic mainly by interaction with the DNA topoisomerase II and by creating DNA single- and double-strand breaks. Previous studies described detailed cytotoxic effects of doxorubicin in the human lung adenocarcinoma A549 cell line. Doxorubicin resembles our compounds in its biological action; therefore, it was employed as a positive control.
(§2) Human lung carcinoma cell line A549 and CCD-18Co colon fibroblasts were purchased from the American Type Culture Collection (ATCC, Rockville, MD, USA). The A549 cells were cultured in a complete RPMI-1640 medium (Sigma-Aldrich, St. Louis, MO, USA) and CCD-18Co cells were cultured in a minimum essential medium (MEM) (PAN-Biotech GmbH, Aidenbach, Germany) at 37 °C, 95% humidity and 5% CO2. The media were supplemented with 10% fetal bovine serum (FBS, Biosera, Nuaille, France) and antibiotics (1% Antibiotic-Antimycotic 100 × and 50 × 10^−3 g L^−1 gentamicin, Biosera). Prior to the selected treatments, cells were seeded on 6- and/or 96-well plates (TPP, Trasadingen, Switzerland) and left to settle for 24 h. The acridine compounds solutions (at concentrations ranging from 5–75 µM) were then added to cells for 24 or 48 h, and analysis was subsequently performed.
(§3) MTT assays were performed in order to evaluate changes in the metabolic activity of cells that had occurred as a consequence of treatment with the acridine compounds. A549 cells (15 × 10^3 cells/cm^2) and CCD-18Co (15.625 × 10^3 cells/cm^2) were seeded in 96-well microplates. The A549 cells were treated for 24 and 48 h, and the CCD-18Co cells were treated for 48 h with different concentrations (5, 25, 50 and 75 µM) of the derivatives. After the treatment, the MTT (3-(4,5-dimethylthiazol-2-yl)-2,5-diphenyltertrazolium bromide) solution in PBS (5 mg mL^−1) was added to each well. The reaction was stopped after 4 h incubation, and the formazan was dissolved by the addition of SDS at a final concentration of 3.3%. The absorbance of formazan (λ = 584 nm) was measured using a BMG FLUOstar Optima spectrometer (BMG Labtech GmbH, Offenburg, Germany). The results were evaluated as percentages of the absorbance of the untreated control. Results are presented as the average percentage of cells from three independent experiments. IC50 values for the derivatives were extrapolated from a sigmoidal fit (dose-response curve) to the metabolic activity data using OriginPro 8.5.0 SR1 (OriginLab Corp., Northampton, MA, USA).

A549 cells = assay: MTT assay, metabolic activity of A549 cells; assay type: cell-based, human; conditions: for IC50: Homo sapiens; for SI, selectivity index: 48 h, IC50 CCD-18Co / IC50 A549
Method: as §1, §2, §3

melting point [°C]	IC50 (A549 cells; A549, 24 h) [µM]	IC50 (A549 cells; A549, 48 h) [µM]	Compound	inhibition of relaxation activity of Topo I (hTopo I)	times less activity than doxorubicin in CCD18-Co (CCD-18Co cells; from IC50)	IC50 (CCD-18Co cells) [µM]	SI, selectivity index (A549 cells)
235 to 236	> 75	43	O=C(N/N=C/c1cccc2cc3ccccc3nc12)c1ccccc1 [3a, N′-[(E)-(Acridin-4-yl)methylidene]benzohydrazide]	did not have the potential to inhibit	> 15	> 75	
229 to 230	> 75	37	O=C(N/N=C/c1cccc2cc3ccccc3nc12)c1ccc(F)cc1 [3b, N′-[(E)-Acridin-4-ylmethylidene]-4-fluorobenzohydrazide]	did not have the potential to inhibit		8	0.22
266 to 267	73	45	O=C(N/N=C/c1cccc2cc3ccccc3nc12)c1ccc(Cl)cc1 [3c, N′-[(E)-Acridin-4-ylmethylidene]-4-chlorobenzohydrazide]	might inhibit the relaxation activity of Topo I		16	0.36
269 to 270	> 75	55	O=C(N/N=C/c1cccc2cc3ccccc3nc12)c1ccc(Br)cc1 [3d, N′-[(E)-Acridin-4-ylmethylidene]-4-bromobenzohydrazide]	might inhibit the relaxation activity of Topo I		17	0.31
